Source: PMC10336507 (Heliyon, 2023)

Target: M. SssI MTase (Spiroplasma monobiae, UniProt P15840)
Test: coupled fluorescence turn-off DNA methylation assay
Assay type: biochemical

Sequence of M. SssI MTase (P15840 whole entry): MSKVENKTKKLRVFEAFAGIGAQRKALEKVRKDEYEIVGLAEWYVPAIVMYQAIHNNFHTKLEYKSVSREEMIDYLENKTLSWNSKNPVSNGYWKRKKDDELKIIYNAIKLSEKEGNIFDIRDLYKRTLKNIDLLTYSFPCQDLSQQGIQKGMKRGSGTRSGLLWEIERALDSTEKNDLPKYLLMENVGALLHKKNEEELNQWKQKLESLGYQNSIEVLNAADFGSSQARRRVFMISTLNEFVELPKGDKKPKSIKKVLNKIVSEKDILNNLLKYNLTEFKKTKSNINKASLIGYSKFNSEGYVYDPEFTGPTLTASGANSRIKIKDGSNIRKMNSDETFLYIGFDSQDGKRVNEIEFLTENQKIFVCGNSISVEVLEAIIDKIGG

IC50: 3.76 µM
SMILES: Nc1ncn([C@@H]2O[C@H](CO)[C@@H](O)[C@H]2O)c(=O)n1 [5-Aza, 5-Azacytidine]
